Experimental data published in patent US11427574B2, “Compounds for treating Rac-GTPase mediated disorder” (Children's Medical Center Corporation, priority 2015, dated 2022).

Key:
[1] = biological target: Tiam1-Rac complex (Homo sapiens, UniProt P63000); test: Homologous time resolved fluorescence (HTRF) binding assay
Protocol: (§1) Compound 1 was tested for its efficacy in binding with Rac1 in two independent binding assays, i.e., 2D NMR spectroscopy and Homologous time resolved fluorescence assay (HTRF).
(§2) In the 2D NMR assay, samples containing 50 μM Rac1 and 250 μM or 400 μM Compound 1 were used.
(§3) Compound 2 was tested for its efficacy in binding with Rac1 in two independent binding assays, i.e., 2D NMR spectroscopy and Homologous time resolved fluorescence assay (HTRF).
(§4) In the 2D NMR assay, a sample containing 50 μM Rac1 and 250 μM Compound 2 was used.

[2] = biological target: Rac1 (Homo sapiens, UniProt P63000); test: 2D NMR spectroscopy binding assay; conditions: 50 μM Rac1 and 250 μM or 400 μM Compound 1
Protocol: as §1, §2, §3, §4

[3] = system: normal bone marrow hematopoietic and progenitor cells; test: Colony forming unit assay (CFU assay) for toxicity; type: cell-based; conditions: semi-solid media, different doses
Protocol: Compound 1 was tested for toxicity in a colony forming unit assay (CFU assay), which was performed by plating normal bone marrow hematopoietic and progenitor cells in semi-solid media supplemented with different doses of Compound 1, NSC23766, and DMSO.
Compound 2 was also tested for toxicity in a colony forming unit assay (CFU assay), which was performed by plating normal bone marrow hematopoietic and progenitor cells in semi-solid media supplemented with different doses of Compound 2, NSC23766, and DMSO.

## CCc1ccc(CN(C)C(=O)CCc2nnc(CCc3c[nH]c4ccccc34)o2)nc1 (racemic) [Compound 1]
[1]
  binding in the HTRF assay: no binding was observed
[2]
  binding to Rac1 by 2D NMR: did not indicate any binding
[3]
  toxicity toward normal bone marrow cells: did not exhibit toxicity
